Laboratory results taken from patent publication US5750733A, “Hydroxy containing alkyl glycamides, low foaming detergent compositions comprising such and a process for their manufacture” (Lever Brothers Company, Division of Conopco, Inc., priority 1996, dated 1998).

What was measured:
[1] = Micellization and Surface Tension Reduction; type: physicochemical; conditions: in water
Description: The appearance and development of micelles are important since detergency (solubilization of soils) by dishwashing liquids, shampoos, detergents, etc., depend on the formation of these aggregates in solution.

[2] = Krafft Point (Water Solubility Test); conditions: for Krafft Point (0.1%): 0.1% dispersion in water by weight; for water solubility (in words): 0.1% in water, Krafft point test
Description: The temperature at and above which surfactants begin to form micelles instead of precipitates is referred to as the Krafft point (Tk) and at this temperature the solubility of a surfactant becomes equal to its CMC (numerical value at which micelles are formed).
The Krafft point was measured by preparing 650 ml of a 0.1% dispersion of surfactant in water by weight. If the surfactant was soluble at room temperature, the solution was slowly cooled to 0° C. […] If it precipitated out of solution, the temperature at which precipitation occurs was taken as the Krafft point.
If the surfactant was insoluble at room temperature, the dispersion was slowly heated until the solution became homogeneous. It was then slowly cooled until precipitation occurred. The temperature at which the surfactant precipitates out of solution upon cooling was taken as the Krafft point.

[3] = Ross-Miles Foam Height of Various Sugar Based Surfactants; conditions: 0.1% surfactant, 50° C.; for Initial foam height / Final foam height (10 min.): 0 ppm hardness; for Final foam height (10 min.): after 10 minutes; for solubility in foam height test (in words): foam height cannot be measured if insoluble
Description: Since most of the foaming data on surfactants is typically obtained by the Ross-Miles Foam Height Assay (Ross, J. and Miles, G. D. Am Soc. for Testing material Method D1173-63 Philadelphia, Pa. (1953); Oil & Soap (1958)62:1260) the foaming ability of these surfactants were acquired using this method.
In the Ross-Miles method, 200 mL of a surfactant solution contained in a pipette of specified dimensions with a 2.9 -mm-i.d. orifice is allowed to fall 90 cm onto 50 mL of the same solution contained in a cylindrical vessel maintained at a given temperature by means of a water jacket. The height of the foam produced in the cylindrical vessel is read immediately after all the solution has run out of the pipette and then again after a given amount of time.
Using this method, the foam production (initial foam height in mm) and foam stability (final foam height after 10 minutes as measured in mm) were measured at 0.1% sugar surfactant concentration, 50° C. and 0 ppm (parts per million) hardness.

[4] = Foaming of a Prototype Detergent Formulation (Ross Miles Foam Height Method); type: physicochemical; conditions: for Foam height of formulation, 5 min / Foam height of formulation, 10 min / Foam height of formulation, Initial: formulation with 4% of the compound, 0.4% formulation, 25° C., 18 FH
Description: A prototype detergent formulation comprising a hydroxy containing alkyl glycamide surfactant was made and tested to an identical formulation containing a non-hydroxy containing alkyl glycamide. The formulation is as follows: […]
C10 -C14 Linear Alkylbenzene Sulfonate
C12 -C15 Alcohol Ethoxylate Containing 7 Units of
Dodecyl 5-Hydroxy D-Glucamide (or Comparative)
Sodium Tripolyphosphate 30
Sodium Carboxymethyl Cellulose

[5] = Clarity Enhancement of prototype detergent compositions with sodium lauryl sulfate; type: physicochemical; conditions: 3% compound with 15.0% sodium lauryl sulfate, room temperature; for Appearance: stored 6 months
Description: The prototype detergent composition is as follows:
Hydroxy Containing Alkyl
Glycamide (or Comparative)
Sodium Chloride 2.0% Viscosity Cobuilder
The above formulations were prepared by admixing the above ingredients in listed order and heating the mixture to about 80° C. with rapid stirring. The mixture was then cooled to about 40° C., placed in a clear jar and stored at room temperature for 6 months.

zein = tested on: zein
Description: The zein solubilization assay was developed to determine the biological effects of surfactants on the skin. The protein is normally insoluble in water, but can be brought into solution by interaction with surfactants. The extent of zein dissolved is related to the irritation potential (M. J. Schwinger, Kolloid-Z.Z. Poly., 233, 848, 1969). The greater the zein solubilization, the greater the irritation potential of that surfactant on the skin.
Thus, a 1% solution of surfactant (30 mls) was added to 1.5 g of zein and stirred at room temperature for 1 hours. Residual zein was collected and dried to constant weight. Differences between starting and residual weight were used to calculate % zein solubilized.

| Structure (SMILES) | Micellization and Surface Tension Reduction [1] | Krafft Point (0.1%) [2] [°C] | Initial foam height [3] [mm] | Final foam height (10 min.) [3] | water solubility (in words) [2] | solubility in foam height test (in words) [3] | further results |
| --- | --- | --- | --- | --- | --- | --- | --- |
| CCCCCCCCCCNC(=O)[C@H](O)[C@@H](O)[C@H](O)[C@H](O)CO [Decyl D-Gluconamide] | Yes | 75 | 199 | 6 mm | – | – | – |
| CCCCCCCC(O)CCCC(=O)NC[C@H](O)[C@@H](O)[C@H](O)[C@H](O)CO (stereo partly drawn) [Dodecyl 5-Hydroxy D-Glucamide, dodecyl 5-hydroxy D-glucamide] | Yes | 41 | 67 | Negligible | – | – | foaming of formulation (in words) ([4]; compared to identical formulation with dodecyl methyl D-glucamide): low foaming compared to identical formulations containing dodecyl methyl D-glucamide; Foam height of formulation, 5 min [4]: 94 mm; Foam height of formulation, 10 min [4]: 75 mm; Foam height of formulation, Initial [4]: 125 mm; Appearance ([5]; listed as C12 5-Hydroxy D-Glucamide): Clear; Appearance ([5]; listed as dodecyl 5-hydroxy glucamide): stay in solution; % Zein Solubilized (zein): 7%; mildness / zein solubilization (in words) (zein): less zein solubilization |
| CN(C[C@H](O)[C@@H](O)[C@H](O[C@H]1O[C@H](CO)[C@@H](O)[C@H](O)[C@H]1O)[C@H](O)CO)C(=O)CCCCCCCCCCCO [Dodecyl 12-Hydroxy Methyl D-Maltamide, dodecyl 12-hydroxy methyl D-maltamide] | Yes | < 21 | 57 | Negligible | – | – | – |
| CCCCCCCCCCCC(=O)NC[C@H](O)[C@@H](O)[C@H](O)[C@H](O)CO [Dodecyl D-Glucamide, dodecyl D-glucamide] | No | > 100 | – | – | Insoluble | Insoluble | Time to precipitation [5]: ≤ 3 days; Appearance [5]: Precipitate; Time to precipitation ([5]; listed as C12 D-Glucamide): 3 days |
| CCCCCCCCCCCCNC(=O)[C@H](O)[C@@H](O)[C@H](O)[C@H](O)CO [Dodecyl D-Gluconamide] | No | > 100 | – | – | Insoluble | Insoluble | – |
| CCCCCCCCCCCCNC(=O)[C@@H](O)[C@H](O)[C@@H](O)[C@@H](O)CO [Dodecyl L-Gluconamide] | No | > 100 | – | – | Insoluble | Insoluble | – |
| CCCCCCCCCCCC(=O)N(C)C[C@H](O)[C@@H](O)[C@H](O)[C@H](O)CO [Dodecyl Methyl D-Glucamide, dodecyl methyl D-glucamide] | Yes | 45 | 173 | 157 mm | – | – | Foam height of formulation, 5 min [4]: 110 mm; Foam height of formulation, 10 min [4]: 100 mm; Foam height of formulation, Initial [4]: 135 mm |
| CCCCCCCCCCCCCCCC(=O)NC[C@H](O)[C@@H](O)[C@H](O)[C@H](O)CO [Hexadecyl D-Glucamide] | No | > 100 | – | – | Insoluble | Insoluble | – |
| CCCCCCCCCCCCCCCCNC(=O)[C@H](O)[C@@H](O)[C@H](O)[C@H](O)CO [Hexadecyl D-Gluconamide] | No | > 100 | – | – | Insoluble | Insoluble | – |
| CCCCCCCCCCCCCCCCCC(=O)NC[C@H](O)[C@@H](O)[C@H](O)[C@H](O)CO [Octadecyl D-Glucamide] | No | > 100 | – | – | Insoluble | Insoluble | – |
| CCCCCCCCNC(=O)[C@H](O)[C@@H](O)[C@H](O)[C@H](O)CO [Octyl D-Gluconamide] | Yes | 12 | 0 | 0 mm | – | – | – |
| CCCCCCCCCCCCCC(=O)NC[C@H](O)[C@@H](O)[C@H](O)[C@H](O)CO [Tetradecyl D-Glucamide] | No | > 100 | – | – | Insoluble | Insoluble | – |
| CCCCCCCCCCCCCCNC(=O)[C@H](O)[C@@H](O)[C@H](O)[C@H](O)CO [Tetradecyl D-Gluconamide] | No | > 100 | – | – | Insoluble | Insoluble | – |
| CCCCCCCC(O)CCC(=O)NC[C@H](O)[C@@H](O)[C@H](O)[C@H](O)CO (stereo partly drawn) [Undecyl 4-Hydroxy D-Glucamide, undecyl-4-hydroxy D-glucamide] | Yes | 37 | 60 | Negligible | – | – | – |
